Where two headings read alike, the source gives them in different places.
Assays:
Test in all cases: 72-hour CellTiter-Glo 2.0 growth inhibition screen (single agent, 9x9 combination dose matrix);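 for Best CI Level: inhibition effect level at which the best CI was calculated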
Type in all cases: cell-based
Panc 04.03 = test system: Panc 04.03;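 for Best CI Level: inhibition effect level at which the best CI was calculated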
NCI-H358 = test system: NCI-H358;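 for Best CI Level: inhibition effect level at which the best CI was calculated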
SW837 = test system: SW837;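 for Best CI Level: inhibition effect level at which the best CI was calculated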
LS-513 = test system: LS-513;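 for Best CI Level: inhibition effect level at which the best CI was calculated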
NCI-H23 = test system: NCI-H23;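 for Best CI Level: inhibition effect level at which the best CI was calculated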
[1] = Panc 04.03 (KRAS G12D), enhancer + MEI-522 (Voruciclib), 72 h;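 for Best CI Level: inhibition effect level at which the best CI was calculated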
[2] = Panc 04.03, Pancreas, Additional Single Agent Responses (inhibition, % I), 72 h
[3] = Panc 04.03, Pancreas, growth inhibition (GI), AUC, single agent, 72 h
[4] = enhancer combined with MEI-522 (Voruciclib), Panc 04.03 (Pancreas), 72 hours, inhibition data
[5] = NCl-H358 (KRAS G12C), enhancer + MEI-522 (Voruciclib), 72 h
[6] = NCl-H358, Lung, Additional Single Agent Responses (inhibition, % I), 72 h
[7] = NCl-H358, Lung, growth inhibition (GI), AUC, single agent, 72 h
[8] = enhancer combined with MEI-522 (Voruciclib), NCl-H358 (Lung), 72 hours, inhibition data
[9] = SW837 (KRAS G12C), enhancer + MEI-522 (Voruciclib), 72 h;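 for Best CI Level: inhibition effect level at which the best CI was calculated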
[10] = SW837, Colorectal, Additional Single Agent Responses (inhibition, % I), 72 h
[11] = SW837, Colorectal, growth inhibition (GI), AUC, single agent, 72 h
[12] = enhancer combined with MEI-522 (Voruciclib), SW837 (Colorectal), 72 hours, inhibition data
[13] = LS-513 (KRAS G12D), enhancer + MEI-522 (Voruciclib), 72 h;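 for Best CI Level: inhibition effect level at which the best CI was calculated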
[14] = LS-513, Colorectal, Additional Single Agent Responses (inhibition, % I), 72 h
[15] = LS-513, Colorectal, growth inhibition (GI), AUC, single agent, 72 h
[16] = enhancer combined with MEI-522 (Voruciclib), LS-513 (Colorectal), 72 hours, inhibition data
[17] = Homo sapiens, NCI-H23, NCl-H23, Lung, Additional Single Agent Responses (inhibition, % I), 72 h
[18] = NCl-H23 (KRAS G12C), enhancer + MEI-522 (Voruciclib), 72 h
[19] = NCl-H23, Lung, Additional Single Agent Responses (inhibition, % I), 72 h
[20] = NCl-H23, Lung, growth inhibition (GI), AUC, single agent, 72 h
[21] = enhancer combined with MEI-522 (Voruciclib), NCl-H23 (Lung), 72 hours, inhibition data
[22] = Panc 04.03, Pancreas, growth inhibition (GI) curve, single agent, 72 h
[23] = NCl-H358, Lung, growth inhibition (GI) curve, single agent, 72 h
[24] = SW837, Colorectal, growth inhibition (GI) curve, single agent, 72 h
[25] = LS-513, Colorectal, growth inhibition (GI) curve, single agent, 72 h
[26] = NCl-H23, Lung, growth inhibition (GI) curve, single agent, 72 h

## C=CC(=O)N1CCN(c2nc(=O)n(-c3c(C)ccnc3C(C)C)c3nc(-c4c(O)cccc4F)c(F)cc23)[C@@H](C)C1 [AMG510]
Panc 04.03; Homo sapiens, Panc 04.03, 72 h
  EC50: 3000 nM
Panc 04.03; Homo sapiens, Panc 04.03, 72 h, read-out: Max Response (% GI)
  Emax: 25%
Panc 04.03; Homo sapiens, Panc 04.03, 72 h, read-out: Max Response (% I)
  Emax: 19%
Panc 04.03; [1]
  Best CI: 0.51
  Bliss Volume: 2.52
  HSA volume: −2.59
  Loewe Volume: 2.70
  Synergy Score: 3.01
Panc 04.03; [2]
  Response Area: 0.00
Panc 04.03; [3]
  Response Area: 0.00
Panc 04.03; [4]
  Best CI: 0.60
  Best CI Level: 20
  Bliss Volume: 0.79
  HSA volume: −2.11
  Loewe Volume: 1.18
  Synergy Score: 1.06
NCI-H358; Homo sapiens, NCI-H358, 72 h, NCl-H358, Lung, Additional Single Agent Responses (inhibition, % I), 72 h
  EC50: 8.5 nM
NCI-H358; Homo sapiens, NCI-H358, 72 h, NCl-H358, Lung, growth inhibition (GI) curve, single agent, 72 h
  EC50: 9.4 nM
NCI-H358; Homo sapiens, NCI-H358, NCl-H358, Lung, Additional Single Agent Responses (inhibition, % I), 72 h
  IC50: 14.2 nM
NCI-H358; Homo sapiens, NCI-H358, NCl-H358, Lung, Additional Single Agent Responses, 72 h, read-out: Max Response (% I)
  Emax: 79%
NCI-H358; Homo sapiens, NCI-H358, NCl-H358, Lung, growth inhibition (GI) curve, single agent, 72 h
  GI50: 8.8 nM
NCI-H358; Homo sapiens, NCI-H358, NCl-H358, Lung, growth inhibition (GI), single agent, 72 h, read-out: Max Response (% GI)
  Emax: 108%
NCI-H358; [5]
  Best CI: 0.51
  Bliss Volume: 4.55
  HSA volume: 2.53
  Loewe Volume: 2.07
  Synergy Score: 3.63
NCI-H358; [6]
  Response Area: 3.87
NCI-H358; [7]
  Response Area: 5.18
NCI-H358; [8]
  Best CI: 0.51
  Best CI Level: 20
  Bliss Volume: −0.42
  HSA volume: 1.90
  Loewe Volume: 1.20
  Synergy Score: 1.07
SW837; Homo sapiens, SW837, 72 h, SW837, Colorectal, Additional Single Agent Responses (inhibition, % I), 72 h
  EC50: 9.9 nM
SW837; Homo sapiens, SW837, 72 h, SW837, Colorectal, growth inhibition (GI) curve, single agent, 72 h
  EC50: 10.4 nM
SW837; Homo sapiens, SW837, Colorectal, Additional Single Agent Responses, 72 h, read-out: Max Response (% I)
  Emax: 37%
SW837; Homo sapiens, SW837, Colorectal, growth inhibition (GI) curve, single agent, 72 h
  GI50: 162 nM
SW837; Homo sapiens, SW837, Colorectal, growth inhibition (GI), single agent, 72 h, read-out: Max Response (% GI)
  Emax: 56%
SW837; [9]
  Best CI: 0.72
  Bliss Volume: 7.24
  HSA volume: 6.16
  Loewe Volume: 6.02
  Synergy Score: 6.03
SW837; [10]
  Response Area: 1.79
SW837; [11]
  Response Area: 2.67
SW837; [12]
  Best CI: 0.64
  Best CI Level: 65
  Bliss Volume: 2.98
  HSA volume: 4.27
  Loewe Volume: 4.27
  Synergy Score: 2.77
LS-513; Homo sapiens, LS-513, 72 h, LS-513, Colorectal, Additional Single Agent Responses (inhibition, % I), 72 h
  EC50: 321 nM
LS-513; Homo sapiens, LS-513, 72 h, LS-513, Colorectal, growth inhibition (GI) curve, single agent, 72 h
  EC50: 320 nM
LS-513; Homo sapiens, LS-513, Colorectal, Additional Single Agent Responses, 72 h, read-out: Max Response (% I)
  Emax: 3%
LS-513; Homo sapiens, LS-513, Colorectal, growth inhibition (GI), single agent, 72 h, read-out: Max Response (% GI)
  Emax: 4%
LS-513; [13]
  Best CI: 0.70
  Bliss Volume: 0.20
  HSA volume: −2.06
  Loewe Volume: −0.76
  Synergy Score: 1.51
LS-513; [14]
  Response Area: −0.19
LS-513; [15]
  Response Area: −0.23
LS-513; [16]
  Best CI: 0.82
  Best CI Level: 20
  Bliss Volume: −0.02
  HSA volume: −1.47
  Loewe Volume: −0.89
  Synergy Score: 0.37
NCI-H23; [17]
  EC50: 6.7 nM
  IC50: 157 nM
NCI-H23; Homo sapiens, NCI-H23, NCl-H23, Lung, Additional Single Agent Responses, 72 h, read-out: Max Response (% I)
  Emax: 56%
NCI-H23; Homo sapiens, NCI-H23, NCl-H23, Lung, growth inhibition (GI) curve, single agent, 72 h
  GI50: 23.2 nM
NCI-H23; Homo sapiens, NCI-H23, NCl-H23, Lung, growth inhibition (GI), single agent, 72 h, read-out: Max Response (% GI)
  Emax: 71%
NCI-H23; [18]
  Best CI: 0.76
  Bliss Volume: 8.97
  HSA volume: 6.92
  Loewe Volume: 6.28
  Synergy Score: 8.27
NCI-H23; [19]
  Response Area: 2.82
NCI-H23; [20]
  Response Area: 3.60
NCI-H23; [21]
  Best CI: 0.53
  Best CI Level: 80
  Bliss Volume: 1.69
  HSA volume: 4.54
  Loewe Volume: 3.98
  Synergy Score: 3.46

## CN1CC[C@@H](c2c(O)cc(O)c3c(=O)cc(-c4ccc(C(F)(F)F)cc4Cl)oc23)[C@@H]1CO [MEI-522(Voruciclib)]
Panc 04.03; [2]
  EC50: 1310 nM
  IC50: 1410 nM
  Response Area: 2.65
Panc 04.03; Panc 04.03, Pancreas, Additional Single Agent Responses, 72 h
  Max Response (% I): 92 % I
Panc 04.03; [22]
  EC50: 1740 nM
  GI50: 1300 nM
Panc 04.03; [3]
  Response Area: 4.67
Panc 04.03; Panc 04.03, Pancreas, growth inhibition (GI), single agent, 72 h
  Max Response (% GI): 168 % GI
NCI-H358; [6]
  EC50: 591 nM
  IC50: 628 nM
  Response Area: 2.50
NCI-H358; NCl-H358, Lung, Additional Single Agent Responses, 72 h
  Max Response (% I): 85 % I
NCI-H358; [23]
  EC50: 598 nM
  GI50: 585 nM
NCI-H358; [7]
  Response Area: 3.61
NCI-H358; NCl-H358, Lung, growth inhibition (GI), single agent, 72 h
  Max Response (% GI): 137 % GI
SW837; [10]
  EC50: 1990 nM
  IC50: 2090 nM
  Response Area: 2.44
SW837; SW837, Colorectal, Additional Single Agent Responses, 72 h
  Max Response (% I): 90 % I
SW837; [24]
  EC50: 2100 nM
  GI50: 1750 nM
SW837; [11]
  Response Area: 4.48
SW837; SW837, Colorectal, growth inhibition (GI), single agent, 72 h
  Max Response (% GI): 166 % GI
LS-513; [14]
  EC50: 549 nM
  IC50: 633 nM
  Response Area: 2.94
LS-513; LS-513, Colorectal, Additional Single Agent Responses, 72 h
  Max Response (% I): 90 % I
LS-513; [25]
  EC50: 878 nM
  GI50: 529 nM
LS-513; [15]
  Response Area: 4.51
LS-513; LS-513, Colorectal, growth inhibition (GI), single agent, 72 h
  Max Response (% GI): 147 % GI
NCI-H23; [19]
  EC50: 1130 nM
  IC50: 1180 nM
  Response Area: 2.83
NCI-H23; NCl-H23, Lung, Additional Single Agent Responses, 72 h
  Max Response (% I): 96 % I
NCI-H23; [26]
  EC50: 1770 nM
  GI50: 1260 nM
NCI-H23; [20]
  Response Area: 5.00
NCI-H23; NCl-H23, Lung, growth inhibition (GI), single agent, 72 h
  Max Response (% GI): 181 % GI
